# Measured values from US11192890B2, “FGFR kinase inhibitors and pharmaceutical uses” (AUCKLAND UNISERVICES LIMITED, priority 2017, dated 2021).
# Like-named read-outs stand apart in the source and are kept apart here.
# How the values were obtained:
# [1] = test system: 4T1 murine syngeneic breast cancer cells; test: Anti-tumour activity, murine 4T1 model; assay type: in vivo, BALB/c mice; details: 70 mg/kg IP, controls 16 days
# Procedure: Studies in BALB/c mice: 4T1 murine syngeneic breast cancer cells (7.5×10^6 cells/mouse) were implanted into the subcutaneous space, in the right flank of immunocompetent BALB/c female mice. Treatment with Compound 204 started at the stated day post cell-implant. Compound 204 was administered intraperitoneally at the stated dose and schedule in Water for Injection. Tumour measurements and body weight were recorded every day, until all tumours increased their volume 4-fold (RTV^4) from day0 of experimental assignment.
# [2] = test system: SW780 (FGFR3-amplified bladder cancer) xenograft; test: Anti-tumour activity, SW780 xenograft; assay type: in vivo, NIH-III nude mice; details: q3dx4, IP
# Procedure: Specific pathogen-free homozygous female NIH-III nude mice (Charles River Laboratories, Wilmington, Mass.) were inoculated subcutaneously with a single cell suspension of SW780 cells (8×10^6 cells/100 μL with Matrigel; right flank) or SNU-16 cells (10×10^6 cells/100 μL; right flank). When tumour xenografts were established (typically 7-14 days for SW780 and 21-28 days for SNU-16) mice were randomized to treatment groups. Test compounds of the present invention were prepared in Water for Injection (WFI). Mice were dosed by intraperitoneal injection (0.01-0.03 ml/g) using the stated schedules and dose levels. […] Tumour size and body weights were measured at regular intervals. Tumour volume was calculated as […] (length×width^2)/6.
# [3] = test system: SNU-16 (FGFR2-amplified) gastric cancer xenograft; test: Anti-tumour activity, SNU-16 xenograft; assay type: in vivo, NIH-III nude mice; details: 80 mg/kg, q7dx2, IP; to day 11
# Procedure: Specific pathogen-free homozygous female NIH-III nude mice (Charles River Laboratories, Wilmington, Mass.) were inoculated subcutaneously with a single cell suspension of SW780 cells (8×10^6 cells/100 μL with Matrigel; right flank) or SNU-16 cells (10×10^6 cells/100 μL; right flank). […] Test compounds of the present invention were prepared in Water for Injection (WFI). Mice were dosed by intraperitoneal injection (0.01-0.03 ml/g) using the stated schedules and dose levels. […] Tumour size and body weights were measured at regular intervals. Tumour volume was calculated as n (length×width^2)/6.
# [4] = test system: SiHa xenograft (tumour hypoxia); test: EF5 immunostaining and MALDI imaging mass spectrometry assay; assay type: in vivo, NIH-III nude mice; details: 86 mg/kg IP, tumours collected after 24 hours; EF5 60 mg/kg
# Procedure: SiHa cervical tumour cells were implanted into the flanks of female NIH-III mice to form subcutaneous xenografts. […] Vehicle and drug-treated SiHa tumours were sectioned at 12 um and collected by melting. Five serial sections were collected from each sample such that sections 1, 3 and 5 were mounted on a standard glass slide for optical microscopy, while sections 2 and 4 were mounted on ITO coated glass slides for MALDI imaging. Slides were stored at −80° C. until required.
# Imaging mass spectrometry was performed at 30 um spatial resolution using a MALDI FT-ICR mass spectrometer (Bruker Solarix-XR 7T) operating in positive ion mode. […] They were washed in dH2O for 5 minutes, in Tris-Buffered saline (TBS) for 10 minutes and blocked with 10% goat serum in TBS and 1% Tween-20, for 1 h, at room temperature. Sections were then incubated with Alexa488-ELK3-51 antibody (Hypoxia-Imaging.org, University of Pennsylvania, US) that recognises EF5 adducts in hypoxic cells and counterstained with DAPI.
# SUM52 cells = test: Oxic and anoxic anti-proliferative activity of the prodrugs
# [5] = Murine plasma pharmacokinetics assay; assay type: in vivo, NIH-III nude mice; details: for AUC(0-inf) / half-life / Cmax / Tmax / AUC(0-t): female, NIH-III nude, mouse, ip, plasma; for AUC(0-t): observed, read-out: AUC0-24
# Procedure: Compound 204 was formulated in water for injection at 2 or 4 mg/ml to be administered by intraperitoneal injection at 0.02 ml/g body weight to achieve a 40 or 80 mg/kg dose. Specific pathogen-free female NIH-III mice (Crl:NIH Lyst^bg Foxn1^nu Btk^xid) were obtained from the Vernon Jansen Unit (VJU), The University of Auckland. To minimize exogenous infection, mice were maintained in individually ventilated cages at 6 mice per cage (Sealsafe Plus Mouse AERO, Tecniplast) and handled in accordance with the Guide for the Care and Use of Laboratory Animals, The University of Auckland. Mice had access to water and food ad libitum. Following dosing, at the specified time points (0.5, 1, 2, 4, 6 and 24 hours, n=3 per time point) mice were anaesthetised (isoflurane inhalation) and blood collected through cardiac puncture. Mice were subsequently culled via cervical dislocation whilst anaesthetized. Blood was collected in ice cold tubes (BD Microtainer® containing K2EDTA) and centrifuged (7 minutes at 6,500 rpm) to separate the plasma fraction. Plasma samples were stored at −80° C. until analysis. Control mice were injected with vehicle only and plasma collected as described. Prior to analysis by LC-MS/MS, calibration standards were prepared in control mouse plasma with a synthetic standard of Compound 204. Plasma samples expected to be outside the range of these standards were diluted in control mouse plasma. Standards and samples were mixed with 3 volumes of ice-cold acetonitrile containing internal standard (2 uL) and then centrifuged at 13000 rpm for 10 minutes at 4° C. The resulting supernatant was diluted in 2 volumes of 0.01% formic acid in water and 10 uL injected onto the LC-MS/MS system using an established quantitative analysis method. Pharmacokinetic parameters resulting from model fit of Compound 204 plasma concentration-time data were then derived where Tmax=time at maximum concentration, Tmax-obs=time at maximum observed concentration, Cmax-obs=maximum concentration observed, Cmax=maximum concentration determined by model, T1/2=half-life of Compound 204 in plasma during elimination phase, AUC0-24=observed area under the mean concentration-time curve, AUC0-inf=area under the concentration-time curve of the model fit.
# H520 cells = test: Oxic and anoxic anti-proliferative activity of the prodrugs
# [6] = Pulse radiolysis of prodrugs; assay type: physicochemical
# SW780 cells = test: Oxic and anoxic anti-proliferative activity of the prodrugs; assay type: cell-based
smiles,measurement,setting,value
"COc1cc(OC)c(Cl)c(N2Cc3cnc(Nc4ccccc4)nc3N(C3CCN(C(=O)/C=C/C[N+](C)(C)Cc4c([N+](=O)[O-])ncn4C)CC3)C2=O)c1Cl.[Br-] [Compound 204, (E)-4-(4-(3-(2,6-dichloro-3,5-dimethoxyphenyl)-2-oxo-7-(phenylamino)-3,4-dihydropyrimido[4,5-d]pyrimidin-1(2H)-yl)piperidin-1-yl)-N,N-dimethyl-N-((1-methyl-4-nitro-1H-imidazol-5-yl)methyl)-4-oxobut-2-en-1-aminium bromide]",median survival time,[1]; q2dx3,18 days
same,median survival time,[1]; q3dx3,20 days
same,median survival time,[1]; q4dx3,21 days
same,median survival time,[1]; q5dx3,22 days
same,time for tumours to reach RTV4,[2]; 100 umol/kg dose,approximately 26 days
same,tumour response at the higher doses tested,[2]; 30 to 133 umol/kg/dose,regressed the tumours
same,tumour response,[3],regressed following each drug administration
same,metabolism of prodrug and release of FGFR inhibitor compound 112 in tumours,[4],hypoxia-selective metabolism
same,fold less potent than the inhibitor compound 112 at inhibiting proliferation (deactivation),"SUM52 cells; SUM52, oxic",296 fold
same,"Hypoxic Cytotoxicity Ratio (HCR), SUM52",SUM52 cells; ratio of oxic and anoxic IC50,12
same,IC50,"SUM52 cells; read-out: Cellular Anti-proliferative IC50, SUM52, Anoxic, 4 hours of anoxia, remainder of assay oxic",17 nM
same,IC50,"SUM52 cells; read-out: Cellular Anti-proliferative IC50, SUM52, Oxic, oxic conditions",207 nM
same,change of maximum plasma concentration and area under the plasma concentration-time curve with increase in dose,[5]; 40 and 80 mg/kg intraperitoneal,linear increase
same,time to maximum plasma concentration,[5]; doses of 40 and 80 mg/kg intraperitoneal,2 to 3 h
same,AUC(0-inf),"[5]; 40 mg/kg intraperitoneal, model fit",262 ± 10.8 µM·h
same,AUC(0-inf),"[5]; 80 mg/kg intraperitoneal, model fit",606 ± 103 µM·h
same,half-life,"[5]; 40 mg/kg, 40 mg/kg intraperitoneal, elimination phase, read-out: T1/2 (converted)",1.21 ± 0.06 h
same,Cmax,"[5]; 40 mg/kg, 40 mg/kg intraperitoneal, model fit, read-out: Cmax",54.9 ± 2.38 µM
same,Tmax,"[5]; 40 mg/kg, 40 mg/kg intraperitoneal, model fit, read-out: Tmax",1.75 ± 0.06 h
same,AUC(0-t),"[5]; 40 mg/kg, 40 mg/kg intraperitoneal",382 µM·h
same,Cmax,"[5]; 40 mg/kg, 40 mg/kg intraperitoneal, read-out: Cmax-obs",51.8 ± 7.46 µM
same,Tmax,"[5]; 40 mg/kg, 40 mg/kg intraperitoneal, read-out: Tmax-obs",2 h
same,half-life,"[5]; 80 mg/kg, 80 mg/kg intraperitoneal, elimination phase, read-out: T1/2 (converted)",1.79 ± 0.36 h
same,Cmax,"[5]; 80 mg/kg, 80 mg/kg intraperitoneal, model fit, read-out: Cmax",86.4 ± 10.4 µM
same,Tmax,"[5]; 80 mg/kg, 80 mg/kg intraperitoneal, model fit, read-out: Tmax",2.58 ± 0.36 h
same,AUC(0-t),"[5]; 80 mg/kg, 80 mg/kg intraperitoneal",~900 µM·h
same,Cmax,"[5]; 80 mg/kg, 80 mg/kg intraperitoneal, read-out: Cmax-obs",77.3 ± 14.7 µM
same,Tmax,"[5]; 80 mg/kg, 80 mg/kg intraperitoneal, read-out: Tmax-obs",4 h
same,half-life,"[5]; 80 mg/kg, doses of 40 and 80 mg/kg intraperitoneal, read-out: plasma half-life",1.2 to 1.8 h
same,fold less potent than the inhibitor compound 112 at inhibiting proliferation (deactivation),"H520 cells; H520, oxic",307 fold
same,"Hypoxic Cytotoxicity Ratio (HCR), H520",H520 cells; ratio of oxic and anoxic IC50,27
same,IC50,"H520 cells; read-out: Cellular Anti-proliferative IC50, H520, Anoxic, 4 hours of anoxia, remainder of assay oxic",47 nM
same,IC50,"H520 cells; read-out: Cellular Anti-proliferative IC50, H520, Oxic, oxic conditions",1260 nM
same,first order rate of fragmentation kfrag,[6],30 s⁻¹
same,IC50,"SW780 cells; Homo sapiens, SW780, oxic conditions, read-out: Cellular Anti-proliferative IC50, SW780, Oxic",1390 nM
same,fold less potent than the inhibitor compound 112 at inhibiting proliferation (deactivation),"SW780 cells; SW780, oxic",143 fold
